Laboratory results as given in patent US20230096766A1, “AMINO ACID HAVING FUNCTIONAL GROUP CAPABLE OF INTERMOLECULAR HYDROGEN BONDING, PEPTIDE COMPOUND CONTAINING SAME AND METHOD FOR PRODUCTION THEREOF” (Chugai Seiyaku Kabushiki Kaisha, priority 2018, published 2023).
*1 amine or outer side, *2 acyl side, *3 side chain or, on linkers, in order; H or OH if unused. Where a SMILES comes first, the peptide text is derived from it. Bridges are numbered along the chain shown (N, C = ends). [ ]: non-standard residue; d: D form. The star is where a group is joined. NMeHph(3-OMe-4-CONHMe) = CNC(=O)c1ccc(CC[C@H](NC)C(=O)O)cc1OC; NMeAbu(3,3-F2-piperidino) = CN[C@@H](CCN1CCCC(F)(F)C1)C(=O)O; dhPhe(4-CONHMe,3-OMe) = CNC(=O)c1ccc(CC[C@@H](N)C(=O)O)cc1OC; Phe(3-OMe,4-CONHMe) = CNC(=O)c1ccc(C[C@H](N)C(=O)O)cc1OC; X1 = COc1cc(C[C@H](N[*:1])C(=O)[*:2])ccc1C(=O)NO; NMehPhe = CN[C@@H](CCc1ccccc1)C(=O)O; X9 = O=C([C@@H](CN[*:1])COCCO)[*:2]; Propyl(2,2-Me2,3-OH) = CC(C)(CO)C*; NMeF = CN[C@@H](Cc1ccccc1)C(=O)O; NMeGABA = CN(CCCC(=O)[*:2])[*:1]; NMeI = CC[C@H](C)[C@H](NC)C(=O)O; NMeL = CN[C@@H](CC(C)C)C(=O)O; NMeV = CN[C@H](C(=O)O)C(C)C; NMeAbu = CC[C@H](NC)C(=O)O; NMeA = CN[C@@H](C)C(=O)O; Piperidide = C1CCN(*)CC1; Abu = CC[C@H](N)C(=O)O; CH2CONHMe = CNC(=O)C*; NBuGly = CCCCNCC(=O)O; NPrGly = CCCNCC(=O)O; Propyl(3-OH) = OCCC*; X3 = C[C@H](O)C*; Sar = CNCC(=O)O; tBu = CC(C)(C)*

test: in vitro; settings: human, Caco-2, Caco-2

**Q.** Which Papp does the source give for `CCCCN1CC(=O)N(C)[C@@H](CC(C)C)C(=O)N[C@@H](COC(C)(C)C)C(=O)N(C)[C@@H](Cc2ccccc2)C(=O)N(C)[C@@H](C(C)C)C(=O)N[C@H](C(=O)N2CCCCC2)CC(=O)N[C@H](C)C(=O)N(C)[C@@H](Cc2ccccc2)C(=O)N[C@@H](CC(C)C)C(=O)N(C)[C@@H](CCN2CCCC(F)(F)C2)C(=O)N[C@@H]([C@@H](C)O)C1=O` [pd386] ([dA][NMeF]L[NMeAbu(3,3-F2-piperidino)]T[NBuGly][NMeL]S(tBu)[NMeF][NMeV]D-Piperidide; lactam N-11) here?
**A.** Its Papp is 2.3 ×10⁻⁶ cm/s.

same assay, conditions: human, Caco-2, Caco-2 (cm/sec)

**Q.** For `CC(C)C[C@@H]1NC(=O)[C@H](Cc2ccccc2)N(C)C(=O)[C@H](COC(C)(C)C)NC(=O)[C@H](Cc2ccccc2)N(C)C(=O)[C@H](C)N(C)C(=O)[C@H](CC(C)C)N(C)C(=O)[C@@H](C)NC(=O)C[C@@H](C(=O)N2CCCCC2)NC(=O)[C@H](Cc2ccccc2)N(C)C(=O)[C@H]([C@@H](C)O)NC(=O)[C@H](CC(C)C)N(C)C1=O` [pd220] ([dA][NMeL][NMeA][NMeF]S(tBu)[NMeF]L[NMeL]T[NMeF]D-Piperidide; lactam N-11), which Papp is on record?
**A.** Its Papp is 1.1 ×10⁻⁶ cm/s.

**Q.** With `CCCCN1CC(=O)N(C)[C@@H](CC(C)C)C(=O)N[C@@H](COC(C)(C)C)C(=O)N(C)[C@@H]([C@@H](C)CC)C(=O)N(C)[C@@H](CC(C)C)C(=O)N[C@H](C(=O)N2CCCCC2)CC(=O)N[C@H](C)C(=O)N(C)[C@@H](Cc2ccccc2)C(=O)N[C@@H](Cc2ccc(C(=O)NC)c(OC)c2)C(=O)N(C)[C@@H](CC(C)C)C(=O)N[C@@H]([C@@H](C)O)C1=O` [AP29] ([dA][NMeF][Phe(3-OMe,4-CONHMe)][NMeL]T[NBuGly][NMeL]S(tBu)[NMeI][NMeL]D-Piperidide; lactam N-11) as the molecule, how does the Papp read?
**A.** The Papp was 0.36 ×10⁻⁶ cm/s.

**Q.** With `CC[C@@H]1NC(=O)[C@H](CCc2ccc(C(=O)NC)c(OC)c2)N(C)C(=O)[C@H](CC(C)C)N(C)C(=O)[C@H](CC(C)C)NC(=O)[C@H](C)N(C)C(=O)C[C@@H](C(=O)N2CCCCC2)NC(=O)[C@H](CC(C)C)N(C)C(=O)CN(C)C(=O)[C@H]([C@@H](C)O)NC(=O)[C@H](CC(C)C)N(C)C(=O)[C@H](Cc2ccccc2)N(C)C1=O` [AP229] ([NMeA]L[NMeL][NMeHph(3-OMe-4-CONHMe)][Abu][NMeF][NMeL]T[Sar][NMeL]D-Piperidide; lactam N-11) as the molecule, how does the Papp read?
**A.** Its Papp is 0.43 ×10⁻⁶ cm/s.

**Q.** For `CCCCN1CC(=O)N(C)[C@@H](CC(C)C)C(=O)N[C@H](C(=O)N2CCCCC2)CC(=O)N(C)[C@@H](CC(C)C)C(=O)NC[C@@H](COCCO)C(=O)N(C)[C@@H](CC(C)C)C(=O)N(C)[C@@H](Cc2ccccc2)C(=O)N[C@@H](CC(C)C)C(=O)N(C)[C@@H](Cc2ccccc2)C(=O)N(C)[C@@H](CC(C)C)C(=O)N[C@@H]([C@@H](C)O)C1=O` [AP131] ([NMeL][X9][NMeL][NMeF]L[NMeF][NMeL]T[NBuGly][NMeL]D-Piperidide; lactam N-11), which Papp is on record?
**A.** The Papp was 1.1 ×10⁻⁶ cm/s.

**Q.** For `CCCCN1CC(=O)N(C)[C@@H](CC(C)C)C(=O)N[C@H](C(=O)N2CCCCC2)CC(=O)N(C)[C@@H](C)C(=O)N[C@@H](COCC(C)(C)CO)C(=O)N(C)[C@@H](CC(C)C)C(=O)N(C)[C@@H](Cc2ccccc2)C(=O)N[C@@H](C(C)C)C(=O)N(C)[C@@H](Cc2ccccc2)C(=O)N(C)[C@@H](CC(C)C)C(=O)N[C@@H]([C@@H](C)O)C1=O` [AP121] ([NMeA]S(Propyl(2,2-Me2,3-OH))[NMeL][NMeF]V[NMeF][NMeL]T[NBuGly][NMeL]D-Piperidide; lactam N-11), which Papp is on record?
**A.** The Papp was 3.1 ×10⁻⁶ cm/s.

**Q.** For `CC[C@H](C)[C@@H]1NC(=O)[C@H](CC(C)C)N(C)C(=O)CCCN(C)C(=O)C[C@@H](C(=O)N2CCCCC2)NC(=O)[C@H](CC(C)C)N(C)C(=O)[C@H](C)N(C)C(=O)[C@H](Cc2ccc(O)cc2)NC(=O)[C@H](CC(C)C)N(C)C(=O)[C@H](COC(C)(C)C)NC(=O)[C@H](CC(C)C)N(C)C(=O)[C@H](Cc2ccccc2)N(C)C1=O` [pd129] ([NMeGABA][NMeL]I[NMeF][NMeL]S(tBu)[NMeL]Y[NMeA][NMeL]D-Piperidide; lactam N-11), which Papp is on record?
**A.** The Papp was 0.16 ×10⁻⁶ cm/s.

**Q.** With `CCCCN1CC(=O)N(C)[C@@H](Cc2ccccc2)C(=O)N(C)[C@@H](CC(C)C)C(=O)N[C@@H](CC(C)C)C(=O)N(C)[C@@H](CC(C)C)C(=O)N[C@H](C(=O)N2CCCCC2)CC(=O)N(C)CC(=O)N(C)[C@@H](CC(C)C)C(=O)N[C@H](CCc2ccc(C(=O)NC)c(OC)c2)C(=O)N(C)[C@@H](CC)C(=O)N[C@@H]([C@@H](C)O)C1=O` [AP214] ([Sar][NMeL][dhPhe(4-CONHMe,3-OMe)][NMeAbu]T[NBuGly][NMeF][NMeL]L[NMeL]D-Piperidide; lactam N-11) as the molecule, how does the Papp read?
**A.** The Papp was 0.84 ×10⁻⁶ cm/s.

**Q.** Which Papp does the source give for `CC(C)C[C@@H]1NC(=O)[C@H](Cc2ccccc2)N(C)C(=O)[C@H](COC(C)(C)C)NC(=O)[C@H](Cc2ccccc2)N(C)C(=O)[C@H](C)N(C)C(=O)[C@H](CC(C)C)N(C)C(=O)[C@@H]2CCCN2C(=O)C[C@@H](C(=O)N2CCCCC2)NC(=O)[C@H](Cc2ccccc2)N(C)C(=O)[C@H]([C@@H](C)O)NC(=O)[C@H](CC(C)C)N(C)C1=O` [pd214] (P[NMeL][NMeA][NMeF]S(tBu)[NMeF]L[NMeL]T[NMeF]D-Piperidide; lactam N-11) here?
**A.** The Papp was 1.2 ×10⁻⁶ cm/s.

**Q.** With `CCCCN1CC(=O)N(C)[C@@H](CC(C)C)C(=O)N[C@@H](Cc2ccc(C(=O)NO)c(OC)c2)C(=O)N(C)[C@@H](CC(C)C)C(=O)N(C)[C@@H](CC(C)C)C(=O)N[C@H](C(=O)N2CCCCC2)CC(=O)N[C@H](CC(C)C)C(=O)N(C)[C@@H](Cc2ccccc2)C(=O)N[C@@H](C(C)C)C(=O)N(C)[C@@H](CC(C)C)C(=O)N[C@@H]([C@@H](C)O)C1=O` [AP257] ([dL][NMeF]V[NMeL]T[NBuGly][NMeL][X1][NMeL][NMeL]D-Piperidide; lactam N-11) as the molecule, how does the Papp read?
**A.** The Papp was 0.03 ×10⁻⁶ cm/s.

**Q.** For `CC[C@H](C)[C@H]1C(=O)N[C@@H]([C@@H](C)O)C(=O)N(C)CC(=O)N(C)[C@@H](CC(C)C)C(=O)N[C@H](C(=O)N2CCCCC2)CC(=O)N(C)[C@@H](C(C)C)C(=O)N[C@@H](CC(C)C)C(=O)N(C)[C@@H](CC(C)C)C(=O)N(C)[C@@H](Cc2ccccc2)C(=O)N[C@@H](COC[C@H](C)O)C(=O)N(C)[C@@H](Cc2ccccc2)C(=O)N1C` [AP66] ([NMeV]L[NMeL][NMeF]S(X3)[NMeF][NMeI]T[Sar][NMeL]D-Piperidide; lactam N-11), which Papp is on record?
**A.** The Papp was 0.68 ×10⁻⁶ cm/s.

**Q.** For `CC(C)C[C@@H]1NC(=O)[C@H](CC(C)C)N(C)C(=O)C[C@@H](C(=O)N2CCCCC2)NC(=O)[C@H](CC(C)C)N(C)C(=O)CN(C)C(=O)[C@H]([C@@H](C)O)NC(=O)[C@H](CC(C)C)N(C)C(=O)[C@H](Cc2ccccc2)N(C)C(=O)[C@H](COCCCO)NC(=O)[C@H](Cc2ccccc2)N(C)C(=O)[C@H](CC(C)C)N(C)C1=O` [AP94] ([NMeL]L[NMeL][NMeF]S(Propyl(3-OH))[NMeF][NMeL]T[Sar][NMeL]D-Piperidide; lactam N-11), which Papp is on record?
**A.** Its Papp is 0.35 ×10⁻⁶ cm/s.

same assay, conditions: human, Caco-2, Caco-2 (membrane permeability)

**Q.** With `CCCN1CC(=O)N(C)[C@@H](CC(C)C)C(=O)N[C@H](C(=O)N2CCCCC2)CC(=O)N(C)[C@@H](CC(C)C)C(=O)N[C@@H](Cc2ccccc2)C(=O)N(C)[C@@H](CC(C)C)C(=O)N(C)[C@@H](CC(C)C)C(=O)N[C@@H](COCC(=O)NC)C(=O)N(C)[C@@H](CCc2ccccc2)C(=O)N(C)[C@@H](CC(C)C)C(=O)N[C@@H]([C@@H](C)O)C1=O` [Compound I04] ([NMeL]F[NMeL][NMeL]S(CH2CONHMe)[NMehPhe][NMeL]T[NPrGly][NMeL]D-Piperidide; lactam N-11) as the molecule, how does the Papp read?
**A.** The Papp was 0.55 ×10⁻⁶ cm/s.
